Reference: patent US20080176889A1, “9-anilinoacridine alkylating agents” (priority 2004, published 2008)
Read-outs that look alike come from different tables or passages of the source.

Columns and labels:
[1] = system: human mammary carcinoma (MX-1) xenografts; assay: MX-1 xenograft in nude mice; assay type: in vivo; conditions: for Average Body Weight: D11 (start of treatment, baseline weight)
Procedure: (§1) Athymic nude mice bearing the nu/nu gene were used for human breast tumor MX-1 xenograft. Outbred Swiss-background mice were obtained from Charies River Breeding Laboratories. Male mice 8 weeks old or older weighing 22 g or more were used for most experiments. Drug was administrated via the tail vein by i.v. injection. Tumor volumes were assessed by measuring length×width×height (or width) by using caliper. Vehicle used was 20 μl DMSO in 180 μl saline. All animal studies were conducted in accordance with the guidelines of the National Institutes of Health Guide for the Care and Use of Animals and the protocol approved by the Memorial Sloan-Kettering Cancer Center's Institutional Animal Care and Use Committee.

DNA = DNA binding observed in the Topo II relaxation comparison; conditions: seen in Topo II relaxation comparison
CCRF-CEM/VBL = assay: XTT cytotoxicity assay, vinblastine-resistant subline; assay type: cell-based, human
Procedure: (§2) The effects of the compounds on cell growth were determined in all human tumor cells (i.e. T-cell acute lymphocytic leukemia CCRF-CEM), in a 72 h incubation, by XTT-tetrazolium assay, as described by Scudiero et al., Cancer Res. 1988, 48, 4827-4833. After the addition of phenazine methosulfate-XTT solution at 37° C. for 6 h, absorbance at 450 and 630 nm was detected on a microplate reader (EL 340; Bio-Tek Instruments Inc., Winooski, Vt.). Six to seven concentrations of each compound were used. The IC50 and dose-effect relationships of the compounds for antitumor activity were calculated by a median-effect plot (see, e.g., Chou et al. Adv. Enzyme Regul. 1984, 22, 27-55) using a computer program on an IBM-PC workstation (see, e.g., Chou et al. Dose-Effect Analysis with Microcomputers: Quantitation of ED50, LD50, Synergism, Antagonism, Low-Dose Risk, Receptor-Ligands Binding and Enzyme Kinetics; Biosoft: Cambridge, U.K., 1987).
(§3) Data summarizing the growth inhibition of human lymphoblastic leukemic cells (CCRF-CEM) and its drug-resistant sublines (resistant to vinblastine and taxol, CCRF-CEM/VBL and CCRF-CEM/taxol, respectively) by compound 37 is shown in Table 4.

[2] = system: human T-cell lymphoblastic leukemic lymphoma xenografts (CCRF-CEM); assay: CCRF-CEM xenograft in nude mice; assay type: in vivo
Procedure: as §1
Table 6 summarizes data related to the therapeutic effects and toxicity of compound 37 in nude mice bearing human T-cell leukemic lymphoma CCRF-CEM xenografts. About 70% of average tumor sized was reduced at the dose of 2 mg/kg (Q3D×5).

CCRF-CEM/Taxol = assay: XTT cytotoxicity assay, taxol-resistant subline; assay type: cell-based, human
Procedure: as §2, §3

HCT-116 = assay: SRB cytotoxicity assay, solid tumor cells HCT-116; assay type: cell-based; conditions: Homo sapiens, HCT-116, 72 h, read-out: IC50 HCT-116
A549 = assay: SRB cytotoxicity assay, solid tumor cells A549; assay type: cell-based, human; conditions: for IC50: Homo sapiens, A549, SRB
[3] = system: human lymphoblastic leukemic cells (CCRF-CEM); assay: XTT-tetrazolium cytotoxicity assay, CCRF-CEM; assay type: cell-based; conditions: for IC50: Homo sapiens, 72 h
Procedure: as §2

Topo II = assay: Topo II-mediated relaxation of pRYG-DNA; assay type: biochemical
[4] = 3 mg/kg Q4Dx5 i.v., column D17, marked (D15)
[5] = 3 mg/kg Q4Dx5 i.v., column D20, marked (D19)
[6] = number in bracket, ratio of IC50's

`OCc1cc(Nc2c3ccccc3nc3ccccc23)cc(OCCN(CCCl)CCCl)c1` [Compound 37, (3-(Acridin-9-ylamino)-5-{2-[bis(2-chloroethyl)amino]ethoxy}phenyl)methanol] was tested, and the “Average Body Weight” value ([1]; 3 mg/kg Q4Dx5 i.v.) was 30.1 gm, the “Average Body Weight Change” value ([1]; 3 mg/kg Q4Dx5 i.v., D14) was −3.5 gm and the “Average Body Weight Change” value ([1]; 3 mg/kg Q4Dx5 i.v., D23) was −7.2 gm. The “Average Tumor Size (T/C)” value ([1]; 3 mg/kg Q4Dx5 i.v., D23) was 0.01, the Tumor free ([1]; 3 mg/kg Q4Dx5 i.v., animals tumor free/total (D27, 28)) was 2/3 and the “Average Body Weight Change” value [1, 4] was −3.3 gm. The “Average Tumor Size (T/C)” value [1, 4] was 0.26, the “Average Body Weight Change” value [1, 5] was −4.7 gm and the “Average Tumor Size (T/C)” value [1, 5] was 0.03. For the same compound, the “Average Body Weight Change” value ([1]; 3 mg/kg Q4Dx5 i.v., column D26, marked (D27)) was −8.8 gm, the “Toxicity (death)” value ([1]; 3 mg/kg Q4Dx5 i.v., deaths/total (D27, 28, 29)) was 3/3 and the mice becoming tumor-free ([1]; 1-2 mg/kg (Q3DX7) or 3 mg/kg (Q4D×5), intravenous injection, n=3) was 66.7%. For the same compound, the “Average Body Weight” value ([1]; 1-2 mg/kg Q3Dx7 i.v.) was 28.3 gm, the “Average Body Weight Change” value ([1]; 1-2 mg/kg Q3Dx7 i.v., D14) was “+1.2 gm” and the “Average Body Weight Change” value ([1]; 1-2 mg/kg Q3Dx7 i.v., D17) was −1.4 gm. For the same compound, the “Average Tumor Size (T/C)” value ([1]; 1-2 mg/kg Q3Dx7 i.v., D17) was 0.37, the “Average Body Weight Change” value ([1]; 1-2 mg/kg Q3Dx7 i.v., D20) was −3.0 gm and the “Average Tumor Size (T/C)” value ([1]; 1-2 mg/kg Q3Dx7 i.v., D20) was 0.17. For the same compound, the “Average Body Weight Change” value ([1]; 1-2 mg/kg Q3Dx7 i.v., D23) was −3.0 gm, the “Average Tumor Size (T/C)” value ([1]; 1-2 mg/kg Q3Dx7 i.v., D23) was 0.14 and the “Average Body Weight Change” value ([1]; 1-2 mg/kg Q3Dx7 i.v., D26) was −3.9 gm. The Tumor free ([1]; 1-2 mg/kg Q3Dx7 i.v., animals tumor free/total (D32.32)) was 2/3, the “Toxicity (death)” value ([1]; 1-2 mg/kg Q3Dx7 i.v., deaths/total) was 0/3 and the “binding to DNA” value (DNA) was “binds relatively tightly to DNA”. The cross-resistance to vinblastine (CCRF-CEM/VBL; CCRF-CEM/VBL vs CCRF-CEM) was “does not develop cross-resistance”, the IC50 (CCRF-CEM/VBL; Homo sapiens, CCRF-CEM, 72 h, read-out: IC50 CCRF-CEM/VBL) was 7.5 nM and the “folds of resistance CCRF-CEM/VBL vs CCRF-CEM parent cells” value (CCRF-CEM/VBL; [6]) was 0.53 ×. For the same compound, the “average tumor size reduced” value ([2]; 2 mg/kg (Q3D×5)) was “About 70%”, the “Average Body Weight” value ([2]; 2 mg/kg Q3Dx5 i.v., D10 (start of treatment, baseline weight)) was 29.4 gm and the “Average Body Weight Change” value ([2]; 2 mg/kg Q3Dx5 i.v., D13) was −1.1 gm. The “Average Body Weight Change” value ([2]; 2 mg/kg Q3Dx5 i.v., D16) was −4.2 gm, the “Average Tumor Size (T/C)” value ([2]; 2 mg/kg Q3Dx5 i.v., D16) was 0.47 and the “Average Body Weight Change” value ([2]; 2 mg/kg Q3Dx5 i.v., D19) was −3.3 gm. For the same compound, the “Average Tumor Size (T/C)” value ([2]; 2 mg/kg Q3Dx5 i.v., D19) was 0.34, the “Average Body Weight Change” value ([2]; 2 mg/kg Q3Dx5 i.v., D22) was −5.9 gm and the “Average Tumor Size (T/C)” value ([2]; 2 mg/kg Q3Dx5 i.v., D22) was 0.33. For the same compound, the “Average Body Weight Change” value ([2]; 2 mg/kg Q3Dx5 i.v., D25) was −6.8 gm, the “Average Tumor Size (T/C)” value ([2]; 2 mg/kg Q3Dx5 i.v., D25) was 0.34 and the Tumor free ([2]; 2 mg/kg Q3Dx5 i.v., animals tumor free/total) was 0/3. The “Toxicity (death)” value ([2]; 2 mg/kg Q3Dx5 i.v., deaths/total) was 0/3, the cross-resistance to taxol (CCRF-CEM/Taxol; CCRF-CEM/taxol vs CCRF-CEM) was “does not develop cross-resistance” and the IC50 (CCRF-CEM/Taxol; Homo sapiens, CCRF-CEM, 72 h, read-out: IC50 CCRF-CEM/Taxol) was 34 ± 13 nM. The “folds of resistance CCRF-CEM/Taxol vs CCRF-CEM parent cells” value (CCRF-CEM/Taxol; [6]) was 1.3 ×, the IC50 (HCT-116) was 5.5 ± 1 nM and the IC50 (A549; 72 hours incubation, read-out: IC50 A549) was 5.6 ± 1.2 nM. For the same compound, the IC50 (A549; incubation for 3 hours, washed, then incubated for a total of 72 hours (footnote b), read-out: IC50 A549 after washing) was 5 nM, the “alteration of potency when drug washed away” value (A549; washed away after incubation for 24 h) was “no alteration of the potency” and the “cytotoxicity relative to AHMA” value [3] was “about 79 fold”. The IC50 [3] was 7 nM, the IC50 ([3]; read-out: IC50 CCRF-CEM) was 9.5 ± 2.5 nM and the “Topo II-mediated relaxation of pRYG-DNA” value (Topo II) was “inhibited DNA relaxation”.
